Common to all, as to type: cell-based
Experiment [1] relates to Propionibacterium acnes EG7NS. Briefly: MIC by anaerobic broth microdilution (WCB, NCCLS). The settings on record: 48 h. An outline of the steps: (§1)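 Anaerobic broth microdilution in WCB (Anaerobe Broth MIC) per NCCLS M11-A5, in jars reaching O2 <0.1% by 2.5 h and CO2 >15% by 24 h. MICs read after 48 h at 35-37° C.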
Experiment [2] relates to Propionibacterium acnes SW101T. Briefly: MIC by anaerobic broth microdilution (WCB, NCCLS). The settings on record: code K: Propionibacterium acnes SW101T, 35-37° C., 48 h. Summed up:
as §1
For orientation: Dilution methods test growth across graded concentrations, often in twofold steps.

Experiment [3] deals with Haemophilus influenzae QK50. Briefly: MIC by broth microdilution (CAMHB + 5% Fildes enrichment, NCCLS). An outline of the steps:
(§2)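 NCCLS-guided microdilution testing was run in CAMHB, supplemented with 5% (v/v) horse serum for the pneumococcal strains. Solvent DMSO stayed ≤2% (v/v), and activity was read as MIC in μg/ml.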

The subject of experiment [4] is Haemophilus influenzae 12214. Described as above. An outline of the steps:
as §2

The test system of experiment [5] is Streptococcus pneumoniae SL199T. The experiment in a line: MIC by broth microdilution (CAMHB + 5% horse serum, NCCLS). The note with it: code E: Streptococcus pneumoniae SL199T. An outline of the steps:
as §2

The subject of experiment [6] is Streptococcus pneumoniae Tupelo. Described as above. The settings on record: code F: Streptococcus pneumoniae Tupelo. Summed up: as §2
For experiment [7], the system named is Streptococcus pneumoniae 1/1. Described as above. The note with it: code D: Streptococcus pneumoniae 1/1. An outline of the steps: as §2
The next experiment deals with Human neutrophils. The experiment in a line: Modulation of neutrophil elastase production. The settings on record: test compound 50 μM; fMLP 0.1 μM, cytochalasin B 5 mg/L; blood from 3 donors. The source says: The neutrophil granulocyte is a key element of the inflammatory process. The neutrophils migrate to the site of inflammation and can be activated to release toxic products, including proteolytic enzymes such as elastase. […] Elastase is a major secreted product of activated neutrophils and is a major contributor to the destruction of tissue in inflammatory disease. Several bioassays based on the repression of secretion of elastase, have been described and used for the detection of anti-inflammatory products (Johansson, […]. Nat. Prod. 65: 32-41). […] The neutrophils are activated by addition of the bacterial product N-formyl methionyl-leucyl-phenylalanine (fMLP) and cytochalasin B, a stimulator of secretion. The amount of elastase secreted is determined by measuring the reaction of elastase with the chromogenic substrate succinyl-alanyl-alanyl-valyl-nitroanilide ([…]), which generates 4-nitroaniline after cleavage by elastase. […] Human neutrophils are isolated by applying whole heparinized blood to a Histopaque column and collecting the granulocytes by centrifugation. […] The total volume of the reaction mixture is 0.8 mL and concentrations specified are the final concentrations in the mixture. […] Neutrophil preparations from blood from 3 different donors were used in parallel. All samples were measured in duplicate. Results are given as % repression of activation of neutrophils in the following Table 5.

The subject of experiment [8] is Escherichia coli ATCC 25922. Briefly: MIC by broth microdilution (CAMHB, NCCLS). The note with it: code C: Escherichia coli ATCC 25922. An outline of the steps:
as §2

Experiment [9] deals with Staphylococcus aureus 1086. Briefly: MIC by broth microdilution (CAMHB, NCCLS). The settings on record: code B: Staphylococcus aureus 1086. Summed up: as §2
For experiment [10], the system named is Staphylococcus aureus ATCC 29213. Briefly: MIC by broth microdilution (CAMHB, NCCLS). The note with it: code A: Staphylococcus aureus ATCC 29213. An outline of the steps:
as §2

Setting [11] is: Cutibacterium acnes, read-out: MIC.
Setting [12] is: code H: Haemophilus influenzae QK50, read-out: MIC.
Where [13] appears, read: code G: Haemophilus influenzae 12214, read-out: MIC.
Setting [14] is: Cutibacterium acnes, code I: Propionibacterium acnes EG7NS, anaerobic, 35-37° C., read-out: MIC.

≈ marks a conversion by molar mass, not a printed value. Like-named read-outs stand apart in the source and are kept apart here.

Results on five compounds are retold here after US7524823B2, “Macrolides” (Basilea Pharmaceutica AG, priority 2005, dated 2009).

As for `CC[C@H]1OC(=O)[C@H](C)[C@@H](O[C@H]2C[C@@](C)(OC)[C@@H](O)[C@H](C)O2)[C@H](C)[C@@H](O[C@@H]2O[C@H](C)C[C@H](N(C)C)[C@H]2O)[C@](C)(O)C[C@@H](C)C(=O)[C@H](C)[C@@H](O)[C@]1(C)O` [Erythromycin, reference compound], the MIC in experiment [1] (Cutibacterium acnes, EG7NS) is 0.125 mg/L (≈ 0.17 µM); in experiment [2] (setting [11]) it was greater than 32 mg/L; in experiment [3] (setting [12]), 2 mg/L; in experiment [4] (setting [13]), 4 mg/L; in experiment [5] (read-out: MIC), greater than 32 mg/L; in experiment [6] (read-out: MIC), 8 mg/L. Moreover, the MIC in experiment [7] (read-out: MIC) was no more than 0.06 mg/L; in experiment [8] (ATCC25922, read-out: MIC), greater than 32 mg/L; in [9] (read-out: MIC) it was greater than 32 mg/L; in experiment [10] (ATCC29213, read-out: MIC) it was 0.5 mg/L (≈ 0.681 µM). In the experiment with Human neutrophils, the “Average repression of activation (%)” value is on record as 5 ± 0.30%.

As for `CC[C@H]1OC(=O)[C@H](C)[C@@H](O[C@H]2C[C@@](C)(OC)[C@@H](O)[C@H](C)O2)[C@H](C)[C@@H](O[C@@H]2O[C@H](C)C[C@H](N(C)C)[C@H]2O)[C@](C)(OC)C[C@@H](C)C(=O)[C@H](C)[C@H]2[C@H](SCCn3cnc4c(N)ncnc43)C(=O)O[C@@]21C` [Example 1, (3S, 3aR, 4R, 6R, 8R, 9R, 10S, 11S, 12R, 15R, 15aS)-3-[[2-[6-amino-9H-purin-9-yl]ethyl]thio]-11-[[2,6-dideoxy-3-C-methyl-3-O-methyl-α-L-ribo-hexopyranosyl]oxy]-15-ethyldecahydro-8-methoxy-4,6,8,10,12,15a-hexamethyl-9-[[3,4,6-trideoxy-3-(dimethylamino)-β-D-xylo-hexopyranosyl]oxy]-2H-furo [2,3-c]oxacyclotetradecin-2,5,13 (3H,6H)-trione], the MIC in experiment [1] (setting [14]) is no more than 0.06 mg/L; in [2] (setting [11]) it was 1 mg/L (≈ 1.04 µM); in experiment [3] (setting [12]), 0.5 mg/L; in [4] (setting [13]), 1 mg/L; in experiment [5] (read-out: MIC) it was 0.125 mg/L; in experiment [6] (read-out: MIC), 0.5 mg/L. Further, the MIC in [7] (read-out: MIC) was no more than 0.06 mg/L; in [8] (ATCC25922, read-out: MIC) it was no less than 32 mg/L; in experiment [9] (read-out: MIC), no less than 32 mg/L; in experiment [10] (ATCC29213, read-out: MIC), 1 mg/L (≈ 1.04 µM). For the same compound, in the experiment with Human neutrophils, the “Average repression of activation (%)” value was found to be 19 ± 0.6%.

For the compound `CC[C@H]1OC(=O)[C@H](C)[C@@H](O[C@H]2C[C@@](C)(OC)[C@@H](O)[C@H](C)O2)[C@H](C)[C@@H](O[C@@H]2O[C@H](C)C[C@H](N(C)C)[C@H]2O)[C@](C)(OC)C[C@@H](C)C(=O)[C@H](C)[C@H]2[C@H](SCCn3cnc4cccnc43)C(=O)O[C@@]21C` [Example 4, (3S, 3aR, 4R, 6R, 8R, 9R, 10S, 11S, 12R, 15R, 15aS)-11-[[2,6-dideoxy-3-C-methyl-3-O-methyl-α-L-ribo-hexopyranosyl]oxy]-15-ethyldecahydro-8-methoxy-4,6,8,10,12,15a-hexamethyl-3-[[2-[3H-imidazo[4,5-b]pyridin-3-yl]ethyl]thio]-9-[[3,4,6-trideoxy-3-(dimethylamino)-β-D-xylo-hexopyranosyl]oxy]-2H-furo [2,3-c] oxacyclotetradecin-2,5,13 (3H,6H)-trione], the MIC in [1] (setting [14]) is 0.125 mg/L (≈ 0.132 µM); in experiment [2] (setting [11]), 4 mg/L (≈ 4.21 µM); in experiment [3] (Haemophilus influenzae, QK50) it was 2 mg/L; in experiment [4] (Haemophilus influenzae, 12214) it was 2 mg/L; in experiment [5] (read-out: MIC) it was 0.5 mg/L; in [6] (read-out: MIC), 0.5 mg/L. Also, the MIC in [7] (read-out: MIC) is no more than 0.06 mg/L; in experiment [8] (ATCC25922, read-out: MIC) it was 32 mg/L (≈ 33.7 µM); in [9] (read-out: MIC), no less than 32 mg/L; in experiment [10] (ATCC29213, read-out: MIC) it was 1 mg/L (≈ 1.05 µM). Also, the “Average repression of activation (%)” value in the experiment on Human neutrophils is on record as 31 ± 2.4%.

In the case of `CC[C@H]1OC(=O)[C@H](C)[C@@H](O[C@H]2C[C@@](C)(OC)[C@@H](O)[C@H](C)O2)[C@H](C)[C@@H](O[C@@H]2O[C@H](C)C[C@H](N(C)C)[C@H]2O)[C@](C)(OC)C[C@@H](C)C(=O)[C@H](C)[C@H]2[C@H](SCCn3cnc4c(N)nc(N)nc43)C(=O)O[C@@]21C` [Example 11], the MIC entry in [1] (code I: Propionibacterium acnes EG7NS, anaerobic, 35-37° C.) is “<=0.06 μg/ml”; in experiment [2], 2 mg/L (≈ 2.04 µM); in [3] (code H: Haemophilus influenzae QK50) it was 2 mg/L; in experiment [4] (code G: Haemophilus influenzae 12214), 2 mg/L; in experiment [5] it was 0.125 mg/L; in experiment [6], 1 mg/L. The MIC result in experiment [7] is “<=0.06 μg/ml”; in experiment [8] it was “>=32 μg/ml”; in experiment [9], “>=32 μg/ml”; in [10] it was 8 mg/L (≈ 8.16 µM). For the same compound, in the experiment with Human neutrophils, the “Average repression of activation (%)” value was 20 ± 0.97%.

On to `CC[C@H]1OC(=O)[C@H](C)C(=O)[C@H](C)[C@@H](O[C@@H]2O[C@H](C)C[C@H](N(C)C)[C@H]2O)[C@](C)(OC)C[C@@H](C)C(=O)[C@H](C)[C@H]2N(CCCCn3cnc(-c4cccnc4)c3)C(=O)O[C@]12C` [Telithromycin, reference compound], for which the MIC was no more than 0.06 mg/L in experiment [1] (setting [14]); 16 mg/L (≈ 19.7 µM) in experiment [2] (setting [11]); 1 mg/L in experiment [3] (setting [12]); 2 mg/L in experiment [4] (setting [13]); no more than 0.06 mg/L in experiment [5] (read-out: MIC); 0.5 mg/L in experiment [6] (read-out: MIC). The MIC in experiment [7] (read-out: MIC) was no more than 0.06 mg/L; in experiment [8] (ATCC25922, read-out: MIC), greater than 32 mg/L; in experiment [9] (read-out: MIC), 0.25 mg/L (≈ 0.308 µM); in experiment [10] (ATCC29213, read-out: MIC), 0.25 mg/L (≈ 0.308 µM).
